Laboratory results: patent US20240398817A1, “CARDIO- AND RENOSAFE ANTIDIABETIC THERAPY” (priority 2018, published 2024)

Test system: patients with type 2 diabetes at high vascular risk
Assay: Cardiovascular and Renal Outcomes Trial: linagliptin 5 mg once daily vs placebo on top of standard of care
Assay type: in vivo
Protocol: The effect of linagliptin on cardiovascular risk in adult patients with type 2 diabetes mellitus and with increased CV risk evidenced by a history of established macrovascular or renal disease (e.g. as defined herein) was evaluated in a multi-center, multi-national, randomized, double-blind parallel group trial. The trial compared the risk of experiencing a major adverse cardiovascular event (MACE) between linagliptin and placebo when these were added to and used concomitantly with standard of care treatments for diabetes (HbA1c), cardiovascular risk factors and renal disease.
The primary endpoint in this trial was the time to first occurrence of three point (3P) MACE. A major adverse cardiac event was defined as a cardiovascular death or a nonfatal myocardial infarction (MI) or a nonfatal stroke. The statistical analysis plan tested for non-inferiority for the occurrence of (3P) MACE. […] The secondary endpoint was a renal composite, defined as renal death or sustained end stage renal disease or sustained decrease of 40% or more in eGFR.
Type 2 diabetes patient with insufficient glycemic control (naïve or pre-treated with any antidiabetic background medication, excluding treatment with GLP-1 receptor agonists, DPP-4inhibitors or SGLT-2 inhibitors if ≥consecutive 7 days, e.g. having HbA1c 6.5-10%), and high risk of cardiovascular events, e.g. defined by: • albuminuria (micro or macro) and previous macrovascular disease: e.g. defined according to Condition I as indicated below; • and/or • impaired renal function: e.g. as defined according to Condition II as indicated below;
Background and aims: People with type 2 diabetes (T2D) are at increased risk for hospitalization for heart failure (hHF), particularly in the setting of concomitant cardiovascular (CV) and/or kidney disease. […] Here we present analyses of HF outcomes with the DPP-4 inhibitor linagliptin (LINA) vs. placebo (PBO) from a Cardiovascular and Renal Outcomes Trial assessing cardiovascular safety and renal microvascular outcome in patients with type 2 diabetes at high vascular risk, a large CV outcomes trial that enrolled participants with T2D at high risk for hHF due to concomitant CV and/or chronic kidney disease. Materials and methods: People with T2D and concomitant CV and/or kidney disease were randomized to receive LINA 5 mg, or PBO once daily (1:1), on top of standard of care. All hHF, CV outcomes, and deaths were centrally adjudicated, with individual and composite HF-related outcomes analyses comparing LINA vs. placebo. Investigator-reported HF-related adverse events, whether or not confirmed by adjudication, were also analyzed. A Cox proportional hazards model adjusting for region and history of HF was used for analyses of first events. Recurrent hHF events were analyzed using a negative binomial model.
Methods: The present Cardiovascular and Renal Outcomes Trial randomized people with T2D and i) concomitant CV disease with UACR >30 mg/g or ii) prevalent CKD (i.e. GFR <45 ml/min/1.73m2 and/or UACR >200 mg/g) to receive the DPP-4 inhibitor linagliptin (5 mg) or placebo once daily in a double-blind fashion. The primary CV endpoint was 3P-MACE, with a key secondary kidney endpoint (adjudicated ESKD, renal death, or sustained ≥40% decrease in eGFR from baseline) and other renal outcomes (including albuminuria and eGFR slope) also assessed. Subgroups were assessed by baseline kidney function (eGFR ≥/<45 ml/min/1.73m2and eGFR ≥/<30, 45 or 60 ml/min/1.73m2).
Adults with type 2 diabetes, HbA1c 6.5-10.0% inclusive, and high CV risk were eligible for inclusion. […] Macrovascular disease eligibility criteria was based on documented and confirmed history of myocardial infarction, coronary artery disease, stroke, carotid artery disease, or peripheral artery disease. Participants with end-stage kidney disease (ESKD), defined as eGFR <15 or requiring maintenance dialysis, were excluded.

[1] = eGFR ≥45 to <60 mL/min/1.73 m^2

SMILES: CC#CCn1c(N2CCC[C@@H](N)C2)nc2c1c(=O)n(Cc1nc(C)c3ccccc3n1)c(=O)n2C [Linagliptin, 1-[(4-methyl-quinazolin-2-yl)methyl]-3-methyl-7-(2-butyn-1-yl)-8-(3-(R)-amino-piperidin-1-yl)-xanthine]
- Renal death, sustained ESKD, or ≥ doubling of se-creatinine: n (eGFR ≥ 45 (n = 3979)): 54
- Renal death, sustained ESKD, or ≥ doubling of se-creatinine: rate/100 patient-years (eGFR ≥ 45 (n = 3979)): 1.38 per 100 patient-years
- 3-point MACE: hazard ratio vs placebo [1]: 1.12
- 3-point MACE: patients with event/patients analyzed [1]: 81/690
- Key secondary kidney outcome: hazard ratio vs placebo [1]: 0.94
- Key secondary kidney outcome: patients with event/patients analyzed [1]: 51/690
- 3-point MACE: hazard ratio vs placebo (eGFR ≥60 mL/min/1.73 m^2): 0.96
- 3-point MACE: patients with event/patients analyzed (eGFR ≥60 mL/min/1.73 m^2): 103/1294
- Key secondary kidney outcome: hazard ratio vs placebo (eGFR ≥60 mL/min/1.73 m^2): 1.46
- Key secondary kidney outcome: patients with event/patients analyzed (eGFR ≥60 mL/min/1.73 m^2): 54/1294
- Non-fatal MI as component of 3-point MACE primary outcome: % (first event of composite): (4.4) %
- Non-fatal MI as component of 3-point MACE primary outcome: no. (first event of composite): 154
- Non-fatal stroke as component of 3-point MACE primary outcome: % (first event of composite): (1.7) %
- Non-fatal stroke as component of 3-point MACE primary outcome: no. (first event of composite): 59
- 4-point MACE (3-point MACE or hospitalization for unstable angina): no. (in vivo): 463
- 4-point MACE: % (in vivo): (13.3) %
- 4-point MACE: hazard ratio vs placebo (in vivo): 1.00
- 4-point MACE: rate/1000 patient-years (in vivo): 62.0 per 1000 patient years
- Acute pancreatitis, adjudication confirmed: % (in vivo): 0.3%
- Acute pancreatitis, adjudication confirmed: N (in vivo): 9^1
- Adverse events leading to discontinuation: % (in vivo): 10.3%
- Adverse events leading to discontinuation: N (in vivo): 359
- Albuminuria progression: rate/100 patient-years (in vivo): 21.36 per 100 patient-years
- Albuminuria progression: rate/1000 patient-years (in vivo): 213.6 per 1000 patient years
- All cancers (malignancies): % (in vivo): 3.3%
- All cancers (malignancies): N (in vivo): 116
- Angioedema events with concomitant ACE/ARB use at baseline: % (in vivo): 0.45%
- Angioedema events with concomitant ACE/ARB use at baseline: N (in vivo): 13
- Any adverse events: % (in vivo): 77.2%
- Changes in body weight or waist circumference vs placebo, in words (in vivo): No clinically meaningful differences
- Changes in weight, systolic and diastolic blood pressure and LDL/HDL cholesterol vs placebo, in words (in vivo): no different between groups
- Chronic pancreatitis, adjudication confirmed: % (in vivo): 0.1%
- Chronic pancreatitis, adjudication confirmed: N (in vivo): 2
- Colon cancer: % (in vivo): 0.2%
- Colon cancer: N (in vivo): 6
- Composite microvascular endpoint (renal and eye outcomes): number of patients (in vivo): 785
- Composite microvascular endpoint: hazard ratio (95% CI) vs placebo (in vivo): 0.86
- Composite microvascular endpoint: rate/1000 patient-years (in vivo): 221.4 per 1000 patient years
- Composite ocular endpoint: hazard ratio vs placebo (in vivo): 0.73
- Composite ocular endpoint: number of patients (in vivo): 36
- Composite ocular endpoint: rate/1000 patient-years (in vivo): 4.7 per 1000 patient years
- Composite renal endpoint 2 (50% eGFR) and composite renal endpoint 3 (30% eGFR with eGFR <60) vs placebo, in words (in vivo): No significant difference
- Confirmed hypoglycemic adverse events with plasma glucose <54 mg/dl or severe event: % (in vivo): 15.9%
- Confirmed hypoglycemic adverse events with plasma glucose <54 mg/dl or severe event: N (in vivo): 557
- Contributing to composite microvascular outcome: patients with retinal laser coagulation or anti-VEGF injection for diabetic retinopathy, % (in vivo): 0.2%
- Contributing to composite microvascular outcome: patients with sustained >50% eGFR decrease, % (in vivo): 0.6%
- Contributing to composite microvascular outcome: patients with sustained ESKD, % (in vivo): 0.3%
- Contributing to composite microvascular outcome: patients with vitreous haemorrhage, % (in vivo): 0.1%
- Contributing to composite ocular outcome: patients with anti-VEGF injection for diabetic retinopathy, % (in vivo): 0.3%
- Contributing to composite ocular outcome: patients with diabetes related blindness, % (in vivo): 0.1%
- Contributing to composite ocular outcome: patients with retinal laser coagulation, % (in vivo): 0.2%
- Contributing to composite ocular outcome: patients with vitreous haemorrhage, % (in vivo): 0.5%
- Coronary revascularization procedure: % (in vivo): (4.6) %
- Coronary revascularization procedure: hazard ratio vs placebo (in vivo): 1.07
- Coronary revascularization procedure: no. (in vivo): 160
- Coronary revascularization procedure: rate/1000 patient-years (in vivo): 21.2 per 1000 patient years
- Difference between treatment groups in HbA1c changes from baseline over time, in words (in vivo): significant up to the Week 132 visit
- Fasting plasma glucose (FPG) vs placebo, in words (in vivo): significant differences observed between the treatment groups up to Week 84
- Fatal myocardial infarction: % (in vivo): (0.3) %
- Fatal myocardial infarction: hazard ratio vs placebo (in vivo): 0.78
- Fatal myocardial infarction: no. (in vivo): 11
- Fatal myocardial infarction: rate/1000 patient-years (in vivo): 1.4 per 1000 patient years
- Fatal or non-fatal myocardial infarction: % (in vivo): (4.7) %
- Fatal or non-fatal myocardial infarction: hazard ratio vs placebo (in vivo): 1.12
- Fatal or non-fatal myocardial infarction: no. (in vivo): 165
- Fatal or non-fatal myocardial infarction: rate/1000 patient-years (in vivo): 21.8 per 1000 patient years
- Fatal or non-fatal stroke: % (in vivo): (2.3) %
- Fatal or non-fatal stroke: hazard ratio vs placebo (in vivo): 0.91
- Fatal or non-fatal stroke: no. (in vivo): 81
- Fatal or non-fatal stroke: rate/1000 patient-years (in vivo): 10.6 per 1000 patient years
- Fatal stroke: % (in vivo): (0.5) %
- Fatal stroke: hazard ratio vs placebo (in vivo): 1.05
- Fatal stroke: no. (in vivo): 17
- Fatal stroke: rate/1000 patient-years (in vivo): 2.2 per 1000 patient years
- Gastric cancer: % (in vivo): 0.0%
- Gastric cancer: N (in vivo): 0
- Hospitalization for heart failure or cardiovascular death: % (in vivo): (11.6) %
- Hospitalization for heart failure or cardiovascular death: hazard ratio vs placebo (in vivo): 0.94
- Hospitalization for heart failure or cardiovascular death: no. (in vivo): 406
- Hospitalization for heart failure or cardiovascular death: rate per 100 person-years (in vivo): 5.37 per 100 person-years
- Hospitalization for heart failure or cardiovascular death: rate/1000 patient-years (in vivo): 53.7 per 1000 patient years
- Hospitalization for unstable angina: % (in vivo): (1.2) %
- Hospitalization for unstable angina: hazard ratio vs placebo (in vivo): 0.87
- Hospitalization for unstable angina: no. (in vivo): 42
